Experimental data published in ChEMBL document CHEMBL5614424, “Natural Product-Inspired Discovery of Naphthoquinone-Furo-Piperidine Derivatives as Novel STAT3 Inhibitors for the Treatment of Triple-Negative Breast Cancer” (J Med Chem, 2024).
Activity calls are given as the source filed them. No cut-off for these calls is given here.

How the values were obtained:
MDA-MB-231 [1] = assay: Antiproliferative activity against human MDA-MB-231 cells assessed as cell viability incubated for 48 hrs measured after additional incubation with MTT; assay type: functional, cell-based; conditions: MDA-MB-231, 48 h
MDA-MB-468 [2] = assay: Antiproliferative activity against human MDA-MB-468 cells assessed as cell viability incubated for 48 hrs measured after additional incubation with MTT; assay type: functional, cell-based; conditions: MDA-MB-468, 48 h
L02 = assay: Antiproliferative activity against human L02 cells assessed as cell viability incubated for 48 hrs measured after additional incubation with MTT; assay type: functional, cell-based; conditions: L02, 48 h
[3] = target: Signal transducer and activator of transcription 3 (Homo sapiens) (UniProt P40763); assay: Suppression of STAT3 activation in human MDA-MB-231 cell assessed as decrease in phosphorylated STAT3 (p-STAT3 Tyr705) level at 3 uM measured after 24 hrs by Western blot analysis; assay type: cell-based
[4] = Antiproliferative activity against human MCF-10A cells assessed as cell viability incubated for 48 hrs measured after additional incubation with MTT; assay type: toxicity, cell-based
[5] = target: Signal transducer and activator of transcription 3 (Homo sapiens) (UniProt P40763); assay: Suppression of STAT3 activation in human MDA-MB-468 cell assessed as decrease in phosphorylated STAT3 (p-STAT3 Tyr705) level at 3 uM measured after 24 hrs by Western blot analysis; assay type: cell-based
MDA-MB-468 [6] = assay: Decrease in STAT3 level in human MDA-MB-468 cell at 3 uM measured after 24 hrs by Western blot analysis; assay type: functional, cell-based
MDA-MB-231 [7] = assay: Decrease in STAT3 level in human MDA-MB-231 cell at 3 uM measured after 24 hrs by Western blot analysis; assay type: functional, cell-based

Signal transducer and activator of transcription 3 (Homo sapiens), sequence (P40763 whole entry): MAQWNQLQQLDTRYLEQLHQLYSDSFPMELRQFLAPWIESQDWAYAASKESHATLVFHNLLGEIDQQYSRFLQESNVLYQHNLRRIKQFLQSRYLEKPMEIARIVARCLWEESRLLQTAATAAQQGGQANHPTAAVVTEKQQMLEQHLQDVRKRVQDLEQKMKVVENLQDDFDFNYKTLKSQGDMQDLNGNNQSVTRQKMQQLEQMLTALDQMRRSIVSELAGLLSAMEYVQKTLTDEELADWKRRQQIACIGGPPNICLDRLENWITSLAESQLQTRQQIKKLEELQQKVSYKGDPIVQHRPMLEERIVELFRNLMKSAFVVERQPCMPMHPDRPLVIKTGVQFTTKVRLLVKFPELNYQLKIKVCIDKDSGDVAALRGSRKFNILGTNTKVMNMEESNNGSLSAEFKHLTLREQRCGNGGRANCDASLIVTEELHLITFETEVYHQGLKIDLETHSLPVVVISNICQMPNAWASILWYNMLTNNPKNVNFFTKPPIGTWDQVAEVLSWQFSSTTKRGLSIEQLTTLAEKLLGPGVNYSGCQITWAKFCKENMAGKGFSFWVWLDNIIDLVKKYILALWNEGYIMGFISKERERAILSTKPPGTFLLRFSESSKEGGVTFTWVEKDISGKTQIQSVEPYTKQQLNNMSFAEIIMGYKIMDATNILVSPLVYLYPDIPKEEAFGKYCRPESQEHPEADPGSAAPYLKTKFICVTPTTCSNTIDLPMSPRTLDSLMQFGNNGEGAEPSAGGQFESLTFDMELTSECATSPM

Compound	IC50 (MDA-MB-231 [1])	IC50 (MDA-MB-468 [2])	IC50 (L02)	inhibition [3]	IC50 at 48 h [4]	inhibition [5]	Activity (MDA-MB-468 [6])	Activity (MDA-MB-231 [7])
O=C1C(=O)c2c(oc3c2CCN(C(=O)c2cccc(C(F)(F)F)c2)C3)-c2ccccc21	12.5 µM	> 20 µM	–	–	–	–	–	–
O=C1C(=O)c2c(oc3c2CCN(CCCCO)C3)-c2ccccc21	6.41 µM	9.48 µM	–	–	–	–	–	–
CC(=O)N1CCc2c(oc3c2C(=O)C(=O)c2ccccc2-3)C1	4.57 µM	3.89 µM	16.6 µM	Active	17.8 µM	Active	–	–
CC(=O)c1cc2c(o1)C(=O)C(=O)c1ccccc1-2	1.43 µM	2.51 µM	7.25 µM	–	6.23 µM	–	–	–
O=C1C(=O)c2c(oc3c2CCNC3)-c2ccccc21	7.11 µM	9.23 µM	–	–	–	–	–	–
COC(=O)[C@H](CC(C)C)N1CCc2c(oc3c2C(=O)C(=O)c2ccccc2-3)C1	> 20 µM	> 20 µM	–	–	–	–	–	–
CNC(=O)CCN1CCc2c(oc3c2C(=O)C(=O)c2ccccc2-3)C1	4.5 µM	3.6 µM	12.5 µM	Active	11 µM	Active	Active	Active
N#Cc1ccc(C(=O)N2CCc3c(oc4c3C(=O)C(=O)c3ccccc3-4)C2)cc1	14.8 µM	12.6 µM	–	–	–	–	–	–
O=C1C(=O)c2c(oc3c2CCN(C(=O)c2ccco2)C3)-c2ccccc21	12.4 µM	12.9 µM	–	–	–	–	–	–
COC(=O)[C@H](C)N1CCc2c(oc3c2C(=O)C(=O)c2ccccc2-3)C1	3.14 µM	2.36 µM	–	inactive	18.2 µM	inactive	–	–
O=C1C(=O)c2c(oc3c2CCN(C(=O)c2ccccc2)C3)-c2ccccc21	5.71 µM	6.86 µM	> 20 µM	–	19.2 µM	–	–	–
COC(=O)CN1CCc2c(oc3c2C(=O)C(=O)c2ccccc2-3)C1	2.5 µM	2.42 µM	5.46 µM	–	4.89 µM	–	–	–
O=C1C(=O)c2c(oc3c2CCN(C(=O)c2cccs2)C3)-c2ccccc21	> 20 µM	12.9 µM	–	–	–	–	–	–
COc1ccc(C(=O)N2CCc3c(oc4c3C(=O)C(=O)c3ccccc3-4)C2)cc1OC	4.59 µM	5.82 µM	7.43 µM	–	7.96 µM	–	–	–
C[C@H]1COC2=C1C(=O)C(=O)c1c2ccc2c1CCCC2(C)C [CRYPTOTANSHINONE]	> 20 µM	> 20 µM	> 20 µM	–	> 20 µM	–	–	–
O=C1C(=O)c2c(oc3c2CCN(C(=O)N2CCOCC2)C3)-c2ccccc21	6.43 µM	5.41 µM	> 20 µM	–	16.8 µM	–	–	–
CN1CCN(C(=O)N2CCc3c(oc4c3C(=O)C(=O)c3ccccc3-4)C2)CC1	6.08 µM	5.84 µM	–	–	–	–	–	–
CNC(=O)CCCN1CCc2c(oc3c2C(=O)C(=O)c2ccccc2-3)C1	7.45 µM	9.45 µM	–	–	–	–	–	–
CNC(=O)[C@H](Cc1ccc(O)cc1)N1CCc2c(oc3c2C(=O)C(=O)c2ccccc2-3)C1	7.26 µM	10.4 µM	–	–	–	–	–	–
O=C1C(=O)c2c(oc3c2CCN(CCCO)C3)-c2ccccc21	2.3 µM	2.32 µM	15.5 µM	Active	11.1 µM	Active	Active	Active

Compound	IC50 (MDA-MB-231 [1])	IC50 (MDA-MB-468 [2])	IC50 (L02)	inhibition [3]	IC50 at 48 h [4]	inhibition [5]	Activity (MDA-MB-468 [6])	Activity (MDA-MB-231 [7])
CN(C)c1ccc(C(=O)N2CCc3c(oc4c3C(=O)C(=O)c3ccccc3-4)C2)cc1	> 20 µM	> 20 µM	> 20 µM	–	> 20 µM	–	–	–
CNC(=O)[C@H](Cc1ccccc1)N1CCc2c(oc3c2C(=O)C(=O)c2ccccc2-3)C1	8.12 µM	8.05 µM	–	–	–	–	–	–
COc1ccc(C(=O)N2CCc3c(oc4c3C(=O)C(=O)c3ccccc3-4)C2)cc1	17.3 µM	> 20 µM	–	–	–	–	–	–
C[C@@H](CO)N1CCc2c(oc3c2C(=O)C(=O)c2ccccc2-3)C1	3.41 µM	5.42 µM	7.87 µM	Active	7.98 µM	Active	–	–
O=C1C(=O)c2c(oc3c2CCN([C@H](CO)Cc2ccccc2)C3)-c2ccccc21	9.97 µM	> 10 µM	–	–	–	–	–	–
CNC(=O)CN1CCc2c(oc3c2C(=O)C(=O)c2ccccc2-3)C1	6.51 µM	4.78 µM	–	–	–	–	–	–
COC(=O)[C@H](Cc1ccccc1)N1CCc2c(oc3c2C(=O)C(=O)c2ccccc2-3)C1	8.26 µM	11.4 µM	–	–	–	–	–	–
COC(=O)[C@H](Cc1ccc(O)cc1)N1CCc2c(oc3c2C(=O)C(=O)c2ccccc2-3)C1	7.26 µM	14.3 µM	–	–	–	–	–	–
O=C1C(=O)c2c(oc3c2CCN([C@H](CO)Cc2ccc(O)cc2)C3)-c2ccccc21	13.6 µM	13 µM	–	–	–	–	–	–
COC(=O)CCN1CCc2c(oc3c2C(=O)C(=O)c2ccccc2-3)C1	5.72 µM	4.13 µM	8.51 µM	–	4.55 µM	–	–	–
CNC(=O)[C@H](CC(C)C)N1CCc2c(oc3c2C(=O)C(=O)c2ccccc2-3)C1	7.99 µM	7.36 µM	–	–	–	–	–	–
O=C1C(=O)c2c(oc3c2CCN(C(=O)c2cccnc2)C3)-c2ccccc21	5.86 µM	5.89 µM	13.3 µM	–	9.35 µM	–	–	–
COC(=O)CCCN1CCc2c(oc3c2C(=O)C(=O)c2ccccc2-3)C1	6.89 µM	9.12 µM	–	–	–	–	–	–
O=C1C(=O)c2c(oc3c2CCN(C(=O)c2ccc(F)cc2)C3)-c2ccccc21	10.9 µM	12 µM	–	–	–	–	–	–
Cc1ccc(C(=O)N2CCc3c(oc4c3C(=O)C(=O)c3ccccc3-4)C2)cc1	14.2 µM	16.9 µM	–	–	–	–	–	–
CNC(=O)[C@H](C)N1CCc2c(oc3c2C(=O)C(=O)c2ccccc2-3)C1	4.14 µM	6.41 µM	> 20 µM	Active	17.6 µM	Active	Active	Active
COC(=O)CC[C@@H](C(=O)OC)N1CCc2c(oc3c2C(=O)C(=O)c2ccccc2-3)C1	12.7 µM	12.2 µM	–	–	–	–	–	–
O=C1C(=O)c2c(oc3c2CCN(C(=O)c2ccc(Cl)cc2)C3)-c2ccccc21	13 µM	10.7 µM	–	–	–	–	–	–
O=C1C(=O)c2c(oc3c2CCN(C(=O)c2ccc(C(F)(F)F)cc2)C3)-c2ccccc21	14.7 µM	14.7 µM	–	–	–	–	–	–
CN(C)C(=O)N1CCc2c(oc3c2C(=O)C(=O)c2ccccc2-3)C1	4 µM	2.35 µM	> 20 µM	Active	> 20 µM	Active	Active	Active
